According to PubChem BioAssay (NCI):
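Each compound was tested at five concentrations against cells in 96-well plates for 48 hours. GI50: concentration for 50% inhibition of growth. At the TGI there is no net growth.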

Legend:
Assay in all cases: DTP human tumour cell line panel, 48 h
ACHN renal = system: ACHN renal
COLO 205 colon = system: COLO 205 colon
HCT-116 colon = system: HCT-116 colon
HT29 colon = system: HT29 colon
LOX IMVI melanoma = system: LOX IMVI melanoma
MALME-3M melanoma = system: MALME-3M melanoma
NCI-H226 lung = system: NCI-H226 lung
PC-3 prostate = system: PC-3 prostate
RPMI-8226 leukemia = system: RPMI-8226 leukemia
UO-31 renal = system: UO-31 renal

| Structure (SMILES) | TGI (ACHN renal) [µM] | TGI (COLO 205 colon) [µM] | TGI (HCT-116 colon) [µM] | TGI (HT29 colon) [µM] | TGI (LOX IMVI melanoma) [µM] | TGI (MALME-3M melanoma) [µM] | TGI (NCI-H226 lung) [µM] | TGI (PC-3 prostate) [µM] | TGI (RPMI-8226 leukemia) [µM] | TGI (UO-31 renal) [µM] | GI50 (ACHN renal) [µM] | GI50 (COLO 205 colon) [µM] | GI50 (HCT-116 colon) [µM] | GI50 (HT29 colon) [µM] | GI50 (LOX IMVI melanoma) [µM] | GI50 (MALME-3M melanoma) [µM] | GI50 (NCI-H226 lung) [µM] | GI50 (PC-3 prostate) [µM] | GI50 (RPMI-8226 leukemia) [µM] | GI50 (UO-31 renal) [µM] |
| --- | --- | --- | --- | --- | --- | --- | --- | --- | --- | --- | --- | --- | --- | --- | --- | --- | --- | --- | --- | --- |
| CC1CCC(O)/C=C/C(=O)OC(C)C(O)/C=C/C(=O)O1 (stereo not given) | > 100 | > 100 | > 100 | > 100 | > 100 | > 100 | > 100 | > 100 | > 100 | > 100 |  |  |  |  |  |  |  |  |  |  |
| COC(=O)c1ccc2c(c1)[n+](=O)c(C(C)=O)c(C(F)(F)F)n2[O-] | 3.24 | 3.95 | 2.76 | 3.25 | 3.2 | 3.79 | 3.65 | 3.63 | 6.34 | 3.15 | 1.76 | 1.95 | 1.45 | 1.73 | 1.7 | 1.96 | 1.95 | 1.64 | 2.23 | 1.71 |
| Cc1cc(C)c2nc(Nc3nc(C)c(C)c(=O)[nH]3)nc(C)c2c1 | 11.6 | 7.51 | 12.9 | 6.04 | 5.38 | 7.48 | 15.4 | 15.1 | 6.21 | 5.86 | 3.06 | 2.51 | 2.94 | 2.25 | 1.92 | 1.61 | 2.93 | 2.96 | 2.13 | 1.82 |
